From ChEMBL document CHEMBL5154876, “Design, synthesis and promising anti-tumor efficacy of novel imidazo[1,2-a]pyridine derivatives as potent autotaxin allosteric inhibitors” (Eur J Med Chem, 2022) come the findings set out here.

The subject of test [1] is RAW264.7. Briefly: Induction of apoptosis in mouse RAW264.7 cells assessed as late apoptotic cells at 0.5 uM after 48 hrs by Annexin V-FITC/PI based flow cytometric analysis (RVB=0.098%). In kind it is functional.
The test system of test [2] is RAW264.7. Description: Induction of cell cycle arrest in mouse RAW264.7 cells assessed as accumulation of cells in S phase at 0.5 uM incubated for 24 hrs by PI/RNase staining based flow cytometric analysis (RVB = 34.03%). It counts as functional. In general terms: Flow cytometry measures light scatter and fluorescence of single cells or particles in a stream.
The subject of test [3] is RAW264.7. Description: Induction of apoptosis in mouse RAW264.7 cells assessed as necrotic cells at 0.5 uM after 48 hrs by Annexin V-FITC/PI based flow cytometric analysis (RVB=0.26%). It counts as functional.
The test system of test [4] is RAW264.7. Briefly: Induction of cell cycle arrest in mouse RAW264.7 cells assessed as accumulation of cells in G1 phase at 1 uM incubated for 24 hrs by PI/RNase staining based flow cytometric analysis (RVB = 55.06%). In kind it is functional.
Test [5] relates to RAW264.7. Description: Induction of cell cycle arrest in mouse RAW264.7 cells assessed as accumulation of cells in G2 phase at 0.25 uM incubated for 24 hrs by PI/RNase staining based flow cytometric analysis (RVB = 10.90%). In kind it is functional.
The test system of another test is MDA-MB-231. Briefly: Cytotoxicity against human MDA-MB-231 cells assessed as inhibition of cell growth incubated for 72 hrs by MTT assay. The conditions noted are these: MDA-MB-231, 72 h. In kind it is functional, cell-based. Background: Formazan colour is commonly taken as a measure of viable cells.
For test [6], the system named is RAW264.7. Description: Induction of apoptosis in mouse RAW264.7 cells assessed as viable cells at 1 uM after 48 hrs by Annexin V-FITC/PI based flow cytometric analysis (RVB=94.1%). It counts as functional. Conditions: read-out: Activity.
The test system of test [7] is RAW264.7. Briefly: Induction of apoptosis in mouse RAW264.7 cells assessed as early apoptotic cells at 0.1 uM after 48 hrs by Annexin V-FITC/PI based flow cytometric analysis (RVB=5.57%). It counts as functional.
The next test has as its system A549. Briefly: Cytotoxicity against human A549 cells assessed as inhibition of cell growth incubated for 72 hrs by MTT assay. In kind it is functional, cell-based. The conditions noted are these: A549, 72 h.
The next test concerns Hep 3B2. Briefly: Cytotoxicity against human Hep3B cells assessed as inhibition of cell growth incubated for 72 hrs by MTT assay. In kind it is functional, cell-based.
The test system of test [8] is RAW264.7. Briefly: Induction of apoptosis in mouse RAW264.7 cells assessed as late apoptotic cells at 0.1 uM after 48 hrs by Annexin V-FITC/PI based flow cytometric analysis (RVB=0.098%). In kind it is functional.

Regarding `CCc1nc2c(C)cc(-c3ccc(CN4CCN(CCO)CC4)cc3)cn2c1NC(=O)OCc1cc(Cl)cc(Cl)c1`, the Activity with RAW264.7 [1] was 0.95%; in the test on RAW264.7 [2] it was 4.78%; in the test on RAW264.7 [3], 1.03%; in the test on RAW264.7 [4], 7.22%; in the test with RAW264.7 [5], 70.82%; with RAW264.7 [7], 6.04%. Further, the Activity with RAW264.7 [8] is 0.44%. Moreover, the IC50 – broadly, the point on the concentration scale where inhibition reaches its midpoint – in the test with MDA-MB-231 amounted to 3.29 µM; with A549 it was 6.59 µM; with Hep 3B2 it was 0.58 µM. Further, in the test on RAW264.7 [6], the viability at 1 µM was 90%.
